Data on nine compounds can be found in patent publication US10273224B2, “Substituted pyrimidine compounds, compositions and medicinal applications thereof” (JUBILANT BIOSYS LIMITED, priority 2013, dated 2019).

In this assay the target is T1, EGFR (L858R & T790M) (Homo sapiens, UniProt P00533, L858R/T790M).
T1 construct: GST; purchased Proqinase
T1 sequence (P00533 25-1210 T790M/L858R): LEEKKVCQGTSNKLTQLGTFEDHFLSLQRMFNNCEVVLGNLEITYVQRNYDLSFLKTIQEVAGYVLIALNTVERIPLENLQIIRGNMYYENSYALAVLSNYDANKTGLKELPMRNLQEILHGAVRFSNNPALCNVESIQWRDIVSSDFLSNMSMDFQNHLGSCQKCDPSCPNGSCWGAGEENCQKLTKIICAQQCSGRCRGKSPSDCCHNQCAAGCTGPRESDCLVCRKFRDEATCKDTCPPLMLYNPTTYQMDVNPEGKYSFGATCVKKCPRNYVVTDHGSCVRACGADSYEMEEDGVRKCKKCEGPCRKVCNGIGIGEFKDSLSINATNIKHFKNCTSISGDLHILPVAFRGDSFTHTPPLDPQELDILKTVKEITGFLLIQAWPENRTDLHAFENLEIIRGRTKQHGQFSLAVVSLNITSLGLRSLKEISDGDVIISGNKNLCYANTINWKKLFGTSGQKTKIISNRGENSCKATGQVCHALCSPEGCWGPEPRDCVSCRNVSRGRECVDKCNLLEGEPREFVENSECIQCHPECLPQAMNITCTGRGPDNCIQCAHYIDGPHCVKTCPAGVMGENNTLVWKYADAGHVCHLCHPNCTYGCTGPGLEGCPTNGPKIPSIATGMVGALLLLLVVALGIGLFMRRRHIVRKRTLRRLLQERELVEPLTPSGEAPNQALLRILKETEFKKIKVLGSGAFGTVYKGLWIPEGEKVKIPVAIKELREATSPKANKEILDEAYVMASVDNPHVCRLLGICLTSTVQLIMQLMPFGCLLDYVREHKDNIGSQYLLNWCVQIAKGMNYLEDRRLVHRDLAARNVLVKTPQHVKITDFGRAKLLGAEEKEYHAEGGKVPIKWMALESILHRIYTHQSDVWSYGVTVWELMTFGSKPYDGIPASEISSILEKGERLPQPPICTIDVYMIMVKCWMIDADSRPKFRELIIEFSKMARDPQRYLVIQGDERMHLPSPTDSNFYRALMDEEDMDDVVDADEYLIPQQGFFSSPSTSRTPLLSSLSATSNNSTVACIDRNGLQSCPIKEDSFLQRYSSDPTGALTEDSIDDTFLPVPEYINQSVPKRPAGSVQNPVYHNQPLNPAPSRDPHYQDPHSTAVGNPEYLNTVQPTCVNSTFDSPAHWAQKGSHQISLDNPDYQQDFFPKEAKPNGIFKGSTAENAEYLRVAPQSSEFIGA
Briefly: EGFR (L858R & T790M) inhibition assay, HTRF method. To be noted: biochemical HTRF; EGFR (T790M/L858R) 2.5 nM, ATP 5 μM, 60 min room temperature. In short, it runs like this: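 GST-EGFR T790M/L858R (2.5 nM) phosphorylating biotinylated gastrin precursor peptide (0.5 μM) with 5 μM ATP in HEPES pH 7.4/Mg/Mn buffer, 60 min room temperature; compounds from 10 μM top. HTRF read-out (Eu anti-pTyr, SA-APC), 665/620 nm; IC50 from % inhibition.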
What is called IC50 is the concentration at which inhibition is half-maximal. Take `C=CC(=O)Nc1cccc(Nc2nc(Nc3nc(C)cs3)ncc2Cl)c1` [Compound I-124, N-(3-((5-chloro-2-((4-methylthiazol-2-yl)amino)pyrimidin-4-yl)amino)phenyl)acrylamide]: the IC50 lay in the range of 10 to 100 nM.

With `C=CC(=O)Nc1cccc(Nc2nc(Nc3cnn(C(C)C)c3)ncc2Cl)c1` [Compound I-4, N-(3-((5-chloro-2-((1-isopropyl-1H-pyrazol-4-yl)amino)pyrimidin-4-yl)amino)phenyl)acrylamide], the IC50 was 10 to 100 nM.

Consider `C=CC(=O)N1CCC(Nc2nc(Nc3cnn(C)c3)ncc2Cl)C1` (racemic) [II-7 (Racemic), 1-(3-((5-chloro-2-((1-methyl-1H-pyrazol-4-yl)amino)pyrimidin-4-yl)amino)pyrrolidin-1-yl)prop-2-en-1-one], for which the IC50 was over 100 nM.

Turning to `COCCn1cc(Nc2ncc(Cl)c(Nc3cccc(NC(=O)C=C4CCCCC4)c3)n2)cn1` [Compound I-6, N-(3-((5-chloro-2-((1-(2-methoxyethyl)-1H-pyrazol-4-yl)amino)pyrimidin-4-yl)amino)phenyl)-2-cyclohexylideneacetamide], the IC50 was over 100 nM.

Consider `CN(C)C/C=C/C(=O)NC1CCCC(Nc2nc(Nc3cnn(C)c3)ncc2Cl)C1` (stereo not drawn) [Compound I-101, (E)-N-(3-((5-chloro-2-((1-methyl-1H-pyrazol-4-yl)amino)pyrimidin-4-yl)amino)cyclohexyl)-4-(dimethylamino)but-2-enamide], for which the IC50 was over 100 nM.

Consider `C=CC(=O)Nc1cccc(Nc2nc(Nc3cnn(C4CCCC(O)C4)c3)ncc2Cl)c1` (stereo not drawn) [Compound I-38, N-(3-((5-chloro-2-((1-(3-hydroxycyclohexyl)-1H-pyrazol-4-yl)amino)pyrimidin-4-yl)amino)phenyl)acrylamide], for which the IC50 is over 100 nM.

For the compound `C=CC(=O)Nc1cccc(Nc2nc(Nc3cnn(S(C)(=O)=O)c3)ncc2Cl)c1` [Compound I-10, N-(3-((5-chloro-2-((1-(methylsulfonyl)-1H-pyrazol-4-yl)amino)pyrimidin-4-yl)amino)phenyl)acrylamide], the IC50 was 10 to 100 nM.

As for `C=CC(=O)Nc1ccc(F)c(Nc2nc(Nc3cn(C)nc3Cl)ncc2Cl)c1` [Compound I-58, N-(3-((5-chloro-2-((3-chloro-1-methyl-1H-pyrazol-4-yl)amino)pyrimidin-4-yl)amino)-4-fluorophenyl)acrylamide], the IC50 is under 10 nM.

Consider `C=CC(=O)Nc1cccc(Nc2nc(Nc3cn(CCOC)nc3C)ncc2Cl)c1` [Compound I-2, N-(3-((5-chloro-2-((1-(2-methoxyethyl)-3-methyl-1H-pyrazol-4-yl)amino)pyrimidin-4-yl)amino)phenyl)acrylamide], for which the IC50 is over 100 nM.
